Values quoted from earlier work in patent publication US20090192135A1, “Human Niemann Pick C1-Like 1 Gene (NPC1L1) Polymorphisms and Methods of Use Thereof” (SCHERING CORPORATION, priority 2005, published 2009).

Key:
NPC1L1 [1] = molecular target: T1, NPC1L1 (Homo sapiens, UniProt Q9UHC9); settings: co-administered with a statin; cited from earlier work
T1 sequence (Q9UHC9 22-1359): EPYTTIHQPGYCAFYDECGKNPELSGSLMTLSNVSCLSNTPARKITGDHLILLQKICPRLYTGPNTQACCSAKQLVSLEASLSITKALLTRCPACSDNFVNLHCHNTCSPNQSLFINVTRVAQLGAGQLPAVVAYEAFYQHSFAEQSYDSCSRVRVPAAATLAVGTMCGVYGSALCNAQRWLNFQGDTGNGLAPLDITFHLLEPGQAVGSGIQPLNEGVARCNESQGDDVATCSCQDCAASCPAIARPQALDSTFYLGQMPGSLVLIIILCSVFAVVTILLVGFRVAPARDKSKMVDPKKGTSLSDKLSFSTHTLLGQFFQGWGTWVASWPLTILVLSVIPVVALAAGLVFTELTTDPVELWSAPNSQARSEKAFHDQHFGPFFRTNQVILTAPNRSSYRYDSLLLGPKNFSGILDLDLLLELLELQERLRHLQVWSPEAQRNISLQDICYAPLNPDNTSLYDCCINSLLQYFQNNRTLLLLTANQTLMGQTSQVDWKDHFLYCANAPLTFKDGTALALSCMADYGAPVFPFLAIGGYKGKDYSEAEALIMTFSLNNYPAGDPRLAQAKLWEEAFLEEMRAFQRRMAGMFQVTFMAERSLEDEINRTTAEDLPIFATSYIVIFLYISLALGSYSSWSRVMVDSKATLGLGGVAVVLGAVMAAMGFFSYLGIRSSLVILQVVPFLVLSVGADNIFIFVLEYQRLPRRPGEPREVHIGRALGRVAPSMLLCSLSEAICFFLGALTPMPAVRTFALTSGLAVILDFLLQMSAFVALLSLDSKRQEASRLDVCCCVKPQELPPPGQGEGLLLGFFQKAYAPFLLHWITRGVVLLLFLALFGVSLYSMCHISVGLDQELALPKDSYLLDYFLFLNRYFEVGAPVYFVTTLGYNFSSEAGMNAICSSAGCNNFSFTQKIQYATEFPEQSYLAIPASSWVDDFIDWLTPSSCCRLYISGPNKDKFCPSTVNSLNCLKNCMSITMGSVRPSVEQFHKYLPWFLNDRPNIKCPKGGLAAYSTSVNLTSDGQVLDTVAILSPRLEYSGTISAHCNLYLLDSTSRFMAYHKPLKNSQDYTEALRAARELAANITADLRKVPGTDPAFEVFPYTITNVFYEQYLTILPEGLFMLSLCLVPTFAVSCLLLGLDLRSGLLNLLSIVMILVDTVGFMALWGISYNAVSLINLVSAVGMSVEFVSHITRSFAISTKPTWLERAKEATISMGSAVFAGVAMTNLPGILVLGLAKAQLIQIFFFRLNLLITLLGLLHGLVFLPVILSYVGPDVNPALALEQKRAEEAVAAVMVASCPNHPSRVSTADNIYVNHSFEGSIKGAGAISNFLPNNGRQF

NPC1L1 [2] = molecular target: T2, NPC1L1 (Homo sapiens, UniProt Q9UHC9); settings: cited from earlier work
T2 construct: from tissue; host or cells: small intestine of hypercholesterolemic patients (in vivo, clinical trial)
T2 sequence (Q9UHC9 22-1332 isoform Q9UHC9-2 limits assumed): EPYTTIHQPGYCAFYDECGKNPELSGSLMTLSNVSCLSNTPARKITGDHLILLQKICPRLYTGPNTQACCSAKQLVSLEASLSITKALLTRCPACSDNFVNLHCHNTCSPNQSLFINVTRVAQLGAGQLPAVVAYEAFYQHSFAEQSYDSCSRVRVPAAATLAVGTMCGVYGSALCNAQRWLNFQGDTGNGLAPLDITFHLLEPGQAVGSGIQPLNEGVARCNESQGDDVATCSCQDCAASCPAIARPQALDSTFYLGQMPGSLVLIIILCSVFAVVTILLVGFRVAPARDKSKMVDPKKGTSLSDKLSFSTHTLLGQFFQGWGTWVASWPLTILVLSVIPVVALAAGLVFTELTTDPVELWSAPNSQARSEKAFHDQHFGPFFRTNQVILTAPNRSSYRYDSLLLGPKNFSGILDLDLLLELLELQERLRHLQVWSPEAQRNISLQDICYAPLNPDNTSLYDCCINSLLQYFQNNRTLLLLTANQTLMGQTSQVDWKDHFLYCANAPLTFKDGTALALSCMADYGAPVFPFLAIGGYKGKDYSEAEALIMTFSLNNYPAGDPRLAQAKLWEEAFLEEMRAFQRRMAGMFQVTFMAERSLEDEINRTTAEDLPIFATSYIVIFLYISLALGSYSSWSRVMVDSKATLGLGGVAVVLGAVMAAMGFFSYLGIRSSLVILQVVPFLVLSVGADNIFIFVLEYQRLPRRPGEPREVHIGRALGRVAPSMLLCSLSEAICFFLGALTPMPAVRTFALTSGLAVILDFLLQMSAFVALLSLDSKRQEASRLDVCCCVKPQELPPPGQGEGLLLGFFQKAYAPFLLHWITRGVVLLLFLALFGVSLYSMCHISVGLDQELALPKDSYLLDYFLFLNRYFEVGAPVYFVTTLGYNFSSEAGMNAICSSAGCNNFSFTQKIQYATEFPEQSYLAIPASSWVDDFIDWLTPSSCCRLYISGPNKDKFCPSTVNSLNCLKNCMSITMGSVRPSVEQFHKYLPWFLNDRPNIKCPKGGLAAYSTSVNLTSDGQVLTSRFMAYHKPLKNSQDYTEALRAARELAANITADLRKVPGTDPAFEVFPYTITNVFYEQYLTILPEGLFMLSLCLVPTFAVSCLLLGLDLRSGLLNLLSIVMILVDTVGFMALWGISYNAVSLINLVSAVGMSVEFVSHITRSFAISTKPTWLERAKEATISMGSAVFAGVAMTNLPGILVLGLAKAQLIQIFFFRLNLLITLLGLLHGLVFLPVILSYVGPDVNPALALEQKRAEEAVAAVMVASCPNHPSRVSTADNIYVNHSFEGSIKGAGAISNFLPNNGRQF

Question: With O=C1[C@H](CC[C@H](O)c2ccc(F)cc2)[C@@H](c2ccc(O)cc2)N1c1ccc(F)cc1 [ezetimibe, 1-(4-fluorophenyl)-3(R)-[3-(4-fluorophenyl)-3(S)-hydroxypropyl]-4(S)-(4-hydroxyphenyl)-2-azetidinone] as the compound, how does the “incremental LDL-C reduction attributable to ezetimibe” value (NPC1L1 [1]) read?
Answer: Its value is 14-15%.

Question: And the “additional LDL-C reduction compared with addition of placebo” value (NPC1L1 [2]; added to ongoing statin therapy, stable dose of statins, EASE)?
Answer: The value was ~23%.

Question: And the “reduction in LDL-C” value (NPC1L1 [2]; ezetimibe group of EASE trial (placebo 2.7%, p<0.001))?
Answer: Its value is 25.8%.
